“And” between values parts separate entries of the source, which are not always exact repeats. Identical values can stand only once. Like-named read-outs stand apart in the source and are kept apart here.

Series [1] relates to LoVo colon carcinoma human xenografts. Description: Efficacy, similar study, ip 2Q1D5×2W (Table 9). Here is the method:
The efficacy of PhAc-ALGP-Dox was assessed using athymic mice (nude/nude NMRI) carrying ectopic xenograft of human LoVo colon carcinoma or of MX-1 mammary carcinoma in comparison with free Doxorubicin. Tumors were established by a subcutaneous implantation of cells (10^7 cells) in the right flank of 6 weeks old female NMRI nude mice (Harlan). Treatments were administered when the tumors reached a size of 150-200 mm^3 (measured using a caliper and calculated with the following formula: […]). Animals were randomly assigned to groups of 4 to-6 animals. […] Compounds were delivered by bolus intraperitoneal injection (ip) at 10 μl/g. During the course of the experiment, clinical signs, body weight and tumor volume were controlled twice a week. Results are presented as the evolution of mean tumor volume as a function of time. Optimal T/C (ratio of mean tumor volume of treated versus control mice) values and TGD (tumor growth delay in reaching 1000 mm^3) were used as a measure of treatment efficacy. […] A statistical analysis was performed at day 22 using the Mann Whitney t test of the Graph Pad Prism 5.0 software.

In series [2] the test system is B16-F10 murine melanoma cells. The class given is in vivo, C57BL6 mice. The method, then: FIG. 11. Evaluation of PhAc-ALGP-Dox efficacy in comparison with Doxorubicin in the B16-F10 lung metastatic melanoma model. Graph on the left side represents quantification of melanin of lung metastasis at day 14 after injection of B16F10 tumor cells. Graph on the right side show the survival curves.
The efficacy of PhAc-ALGP-Dox was tested in the well described B16-F10 lung metastatic melanoma model. For that purpose, […] B16-F10 murine melanoma cells were injected in the lateral vein of C57BL6 mice. Treatments started three days after cells injection. Animal received twice a day (at 5-6 h interval) for 5 consecutive days intraperitoneal injections (total 10 injections/mouse) of saline or of Doxorubicin at 2 and 3.5 μmol/kg or of PhAc-ALGP-Dox at 50 μmol/kg. Five mice per group were sacrificed at day 14 after cells injection. Lungs were collected and processed for melanin quantification (Molecular Pharmacology, 74: 1576-1586, 2008). Survival was determined by observation of the remaining mice.

Series [3] is classed as in vivo, CD1 mice. The method, then:
FIG. 12. Evaluation of PhAc-ALGP-Dox leucopenic effect in comparison with Doxorubicin. CD1 mice received twice daily intraperitoneal injections of PhAc-ALGP-Dox 35 μmol/kg (●) or of Doxorubicin 3.5 μmol/kg (▪) for five consecutive days. The mice body weight evolution was recorded (A). Blood was collected from the tail vein in heparinised Microvettes tubes (Starsted) at day 4, 11 and 15 after treatment initiation. Peripheral white blood cells (WBC) were counted using the SCILvet abc hematologic analyzer (B). The increase or decrease in WBC is expressed as a percentage of WBC on day 0 (100%) for each mouse. The curves show evolution of the mean percentages.
The leucopenic effects of PhAc-ALGP-Dox (35 μmol/kg ip) and of Doxorubicin (3.5 μmol/kg ip) were compared in two independent experiments. CD1 mice received two daily intraperitoneal injections of drugs for five consecutive days (total 10 injections/mouse; 2×5 animals per group). The mice body weight evolution was recorded. Blood was collected from the tail vein in EDTA-coated Microvettes tubes (Starsted) at day 4, 11 and 15 after treatment initiation. White blood cells (WBC) were counted using the SCILvet abc hematologic analyzer. The increase or decrease in WBC was expressed as a percentage of WBC on day 0 (100%) for each mouse.

Series [4] relates to UZLX-STS3 dedifferentiated liposarcoma xenograft. An excerpt: FIG. 16. Effect of PhAc-ALGP on a UZLX-STS3 xenograft model. UZLX-STS3 is a tissue xenograft derived from a patient diagnosed with dedifferentiated liposarcoma (DDLPS).
A total of 24 mice were bilaterally transplanted with UZLX-STS3 (tissue xenografts of passage 10). Animals were randomly assigned to three different groups: a control group (saline; -●-); A PhAc-ALGP-doxorubicin group (cumulative dose 1.20 mmol/kg; -▪-) and a doxorubicin group (cumulative dose 0.03 mmol/kg; -▴-). The drugs were administered intraperitoneally during 7 days by continuous release via an Alzet® osmotic pump, with delivery rate of 0.5 μl/h over 7 days. The experiment lasted 21 days (7 days of treatment+14 days of observation). Tumor volume and mouse body weight were evaluated at baseline and subsequently three times per week until the end of each experiment. After 21 days mice were sacrificed. Tumor volume is recorded 3× weekly by 3-dimensional caliper measurement. Data are presented as the average of the relative tumor volumes per group±standard deviation.
The comparison between the tumor volumes on day zero and the volumes on the last day of the experiments was done by Wilcoxon's matched paired test. The comparisons between different groups were performed using the Mann-Whitney U test (relative tumor volumes, histologic assessment). […] The […] software (StatSoft, version 12.0) was used for all the calculations.
FIG. 18. Data are presented as the average of the white blood cell count of mice in every group±standard deviation. The dashed lines mark the reference values for nu/nu NMRI mouse strain. PhAc-ALGP-doxorubicin (-▪-); Dox (-▴-); and saline (-●-). Total white blood cell count was determined using the CELL-DYN 3500 multiparameter automated hematology analyzer with optimization for murine blood parameters (Abott Diagnostics, Division, Ill., USA)
FIG. 19. Data are presented as the average of the neutrophil count of mice in every group±standard deviation. The dashed lines mark the reference values for nu/nu NMRI mouse strain. PhAc-ALGP-doxorubicin (-▪-); Dox (-▴-); and saline (-●-). Neutrophil count was determined using the CELL-DYN 3500 multiparameter automated hematology analyzer with optimization for murine blood parameters (Abott Diagnostics, Division, Ill., USA)

The next series can be described thus: in vivo. The conditions noted are these: female, OF-1, mouse, iv, 86.2 umol/kg.
Series [5] in a line: Pharmacokinetics and heart quantification after single ip injection. The following applies: for Dox concentration in heart after 24 h: ip 92 μmol/kg of the labelled drug, ± SD.
Method: Time evolution of blood concentration of PhAc-ALGP-Dox and its metabolites (A) or of Doxorubicin (B) after intraperitoneal injection to OF-1 female wild type mice at the equimolar dose of 92 μmol/kg. Results represent the mean concentration±SD (n=3).
Pharmacokinetic tissue distribution studies were performed using OF-1 mice. Doxorubicin and PhAc-ALGP-Dox were dissolved in saline at the dose of 9.2 mM and administered to mice by intraperitoneal route (10 μL/g, 6 mice per group). At different time points after drug administration (5 min, 30 min, 1 h, 4 h, and 24 h), blood samples were collected from the lateral tail vein of three mice using EDTA-coated microtubes (Starsted). After 24 h, 3 mice per group were sacrificed by cervical dislocation and hearts were collected. They were incised and rinsed carefully in phosphate buffer saline (to eliminate blood in the cardiac cavities), dried on paper and frozen in liquid nitrogen. They were stored until analysis. The hearts were homogenized with an Ultraturrax homogenizer in 1.5 mL water. The protein concentration was measured using the microBCA protein assay (Pierce). The drug tissue quantification was made by HPLC after extraction: 150 μL of acetonitrile was added to the 50 μL samples. Samples were vortexed and centrifuged for 10 min at 13 000 rpm at room temperature. Supernatant was collected. Samples were buffered by addition of 200 mM formiate buffer pH 4.5 (1 V sample supernatant+3 V buffer) before HPLC analysis (fluo detection ex=235 nm em=560 nm).
The nature of series [6]: Pharmacokinetics and heart tissue quantification after single iv bolus.
Method: (§1) Time evolution of plasma concentration (A, B) and of cardiac tissue concentration (C, D) of Doxorubicin or PhAc-ALGP-Dox and its metabolites after i.v. bolus injection to OF-1 female wild type mice at the dose of 86.2 μmol/kg. Results represent the mean concentration±SD (n=3).
(§2) Pharmacokinetic tissue distribution studies were performed using OF-1 mice. […] At different time points after drug administration (5 min, 30 min, 1 h, 4 h, 7 h, 16 h and 24 h) 3 mice per group were sacrificed by cervical dislocation and blood and heart tissue were collected. Hearts were incised and rinsed carefully in phosphate buffer saline (to eliminate blood in the cardiac cavities), dried on paper and frozen in liquid nitrogen. They were stored until analysis. Blood samples were centrifuged (10 min, 2000 g, 4° C.) to separate the plasma fraction, which was stored for analysis. The hearts were homogenized with an Ultraturrax homogenizer in 1.5 mL water. The protein concentration was measured using the microBCA protein assay (Pierce). The drug tissue quantification was made by HPLC after extraction: 150 μL of acetonitrile was added to the 50 μL samples. Samples were vortexed and centrifuged for 10 min at 13 000 rpm at room temperature. Supernatant was collected. Samples were buffered by addition of 200 mM formiate buffer pH 4.5 (1 V sample supernatant+3 V buffer) before HPLC analysis (fluo detection ex=235 nm em=560 nm).

Method for in vivo: as §1, §2

What is called AUC is concentration integrated over time. In the case of `COc1cccc2c1C(=O)c1c(O)c3c(c(O)c1C2=O)C[C@@](O)(C(=O)CO)C[C@@H]3O[C@H]1C[C@H](N)[C@H](O)[C@H](C)O1` [Doxorubicin, reference compound], the “TGD” value stood at 5 days in series [1] (1 μmol/kg ip 2Q1D5×2W) and 9 days in series [1] (1.5 μmol/kg ip 2Q1D5×2W). The mortality entry is recorded as “one dead mouse was found at day 29” in series [1] (1 μmol/kg ip 2Q1D5×2W) and “one mouse was found dead at day 11 as well as 3 mice at day 15” in series [3] (3.5 μmol/kg ip 2Q1D5, 2×5 animals). For the same compound, the “TGI [% (day)]” value in series [1] (1 μmol/kg ip 2Q1D5×2W, day 29) is recorded as 44(29), %; in series [1] (1.5 μmol/kg ip 2Q1D5×2W, day 29, n = 1), 65(29), %. For the same compound, the median survival in series [2] (2 μmol/kg ip 2Q1D5) is given as 24 days; in series [2] (3.5 μmol/kg ip 2Q1D5), 28 days. The “amount of melanin in lung homogenate” value is given as 183 mg/mL in series [2] (2 μmol/kg ip 2Q1D5, day 14) and 53 mg/mL in series [2] (3.5 μmol/kg ip 2Q1D5, day 14). Also, the “relative tumor volume at day 21” value in series [4] (ip, 30 umol/kg) is listed as 246%. Besides, the AUC in the series “in vivo” is 63 µM·h. The “percentage of the injected dose reaching the blood compartment in the first five minutes” value in series [5] (ip 92 μmol/kg) is “about 2.5%”. Besides, the “Dox concentration in heart after 24 h” value in series [5] amounted to 253 ± 60 pmol/mg protein. The “drug plasma concentration eliminated in the first five minutes” value in series [6] (i.v. bolus 86.2 μmol/kg) is recorded as “About 90%”.

For the compound `COc1cccc2c1C(=O)c1c(O)c3c(c(O)c1C2=O)CC(O)(C(=O)CO)CC3OC1CC(NC(=O)C2CCCN2C(=O)CNC(=O)C(CC(C)C)NC(=O)C(C)NC(=O)CP(=O)(O)O)C(O)C(C)O1` (stereo not drawn) [PhAc-ALGP-Dox, PhAc-ALGP-doxorubicin], the “TGD” value in series [1] (25 μmol/kg ip 2Q1D5×2W) is 9 days. Besides, the “TGI [% (day)]” value in series [1] (25 μmol/kg ip 2Q1D5×2W, day 29) is given as 54(29), %. In addition, the “TGD” value in series [1] (35 μmol/kg ip 2Q1D5×2W) was 9 days. Further, the “TGI [% (day)]” value in series [1] (35 μmol/kg ip 2Q1D5×2W, day 29) is 53(29), %. Besides, in series [1] (50 μmol/kg ip 2Q1D5×2W), the “TGD” value is reported as 22 days. Also, the “maximum body weight loss” value in series [1] (50 μmol/kg ip 2Q1D5×2W, day 9) came to 13%. Besides, the “TGI [% (day)]” value in series [1] (50 μmol/kg ip 2Q1D5×2W, day 29) was 73% and 73(29), %. Also, in series [2] (50 μmol/kg ip 2Q1D5), the median survival stood at 36 days. For the same compound, the “amount of melanin in lung homogenate” value in series [2] (50 μmol/kg ip 2Q1D5, day 14) stood at 16 mg/mL. Moreover, the “leucopenic effect and body weight loss (in words)” value in series [3] (35 μmol/kg ip 2Q1D5) is “No leucopenic effect and body weight loss”. Also, the “neutrophil count (in words)” value in series [4] (21 days after administration at 40-times higher dose than free doxorubicin) is “unchanged netrophil count”. The “relative tumor volume at day 21” value in series [4] (cumulative dose 1.20 mmol/kg ip via osmotic pump over 7 days, day 0 = 100%) is 105%. Moreover, the “total white blood cells and neutrophils (in words)” value in series [4] (cumulative dose 1.20 mmol/kg, versus control or doxorubicin-treated animals) is “No major changes”. Also, the exposure (AUC) in “in vivo” was found to be 97 µM·h. In series [5] (ip 92 μmol/kg), the “percentage of the injected dose reaching the blood compartment in the first five minutes” value is on record as “about 1%” and the “time after which the conjugate was no longer detected in blood” value turned out to be 4 h. The “Doxorubicin cardiac accumulation versus Doxorubicin injection (times less)” value in series [5] (ip 92 μmol/kg equimolar, 24 h) turned out to be 19 times. Moreover, the “Dox concentration in heart after 24 h” value in series [5] came to 13 ± 3 pmol/mg protein. Further, in series [6] (equimolar 86.2 μmol/kg iv), the “Dox heart AUC versus Dox administration (times lower)” value was determined as 25 times and the “plasma AUC of Doxorubicin after Doxorubicin versus after PhAc-ALGP-Dox (times higher)” value is 63 times. In addition, in series [6] (i.v. bolus 86.2 μmol/kg), the “drug plasma concentration eliminated in the first five minutes” value is “About 90%”; the “fraction hydrolysed into LGP-Dox, GP-Dox and Dox in plasma” value was “Less than 1%”; the “time after which metabolites were no longer detected in plasma” value was 1 h. The “Heart AUC of PhAc-ALGP-Dox” value in series [6] (one i.v. bolus 86.2 μmol/kg) is on record as 23 pmol · h/mg protein.

The values above are taken from US10076576B2, “Minimally toxic prodrugs” (priority 2012, dated 2018).
